Consider 21 compounds from BindingDB's records for doi:10.1016/j.ejmech.2020.112549 (Sichuan University, 2020).

Bounds are passed on as bounds.

One may read the EC50 as the concentration that produces a half-maximal response.

A short description of experiment [1]: Inhibition of reverse transcriptase L100I mutant in HIV-1 3B infected in human MT4 cells assessed as reduction in virus-induced cytopathic effect incubated for 5 days by MTT assay.
The nature of experiment [2]: Inhibition of reverse transcriptase Y181C mutant in HIV-1 3B infected in human MT4 cells assessed as reduction in virus-induced cytopathic effect incubated for 5 days by MTT assay. (In general: Damage to the host cells serves as the signal in cytopathic effect assays.)
The nature of experiment [3]: Inhibition of reverse transcriptase E138K mutant in HIV-1 3B infected in human MT4 cells assessed as reduction in virus-induced cytopathic effect incubated for 5 days by MTT assay.
The nature of experiment [4]: Inhibition of reverse transcriptase K103N mutant in HIV-1 3B infected in human MT4 cells assessed as reduction in virus-induced cytopathic effect incubated for 5 days by MTT assay.
Experiment [5] in a line: Inhibition of reverse transcriptase Y188L mutant in HIV-1 3B infected in human MT4 cells assessed as reduction in virus-induced cytopathic effect incubated for 5 days by MTT assay.

Consider `COc1cc(-c2ccc(C#N)cc2)ccc1C(O)c1ccnc(Nc2ccc(C#N)cc2)n1` (configuration not stated), for which the EC50 in experiment [1] was 0.113 µM; in experiment [2], 0.032 µM; in experiment [3], 0.0074 µM.

Regarding `COc1cc(-c2ccc(C#N)cc2)ccc1[C@@H](O)c1ccnc(Nc2ccc(C#N)cc2)n1`, the half-maximal effective concentration (EC50) in experiment [1] was 1.25 µM; in experiment [2] it was 0.507 µM; in experiment [4], 0.438 µM; in experiment [3], 0.196 µM.

In the case of `COc1cc(-c2ccc(C#N)cc2)ccc1[C@H](O)c1ccnc(Nc2ccc(C#N)cc2)n1`, the EC50 in experiment [1] is 0.067 µM; in experiment [5] it was 0.088 µM; in experiment [2], 0.015 µM; in experiment [4] it was 0.0067 µM.

Regarding `N#Cc1ccc(Nc2nccc(C(O)c3ccc(-c4ccc(C#N)cc4)cc3Cl)n2)cc1` (configuration not stated), the concentration giving a half-maximal response (EC50) in experiment [1] came out at 0.091 µM; in experiment [5], 0.297 µM; in experiment [2], 0.014 µM; in experiment [4] it was 0.0059 µM; in experiment [3], 0.0073 µM.

For the compound `N#Cc1ccc(Nc2nccc([C@H](O)c3ccc(-c4ccc(C#N)cc4)cc3Cl)n2)cc1`, the half-maximal effective concentration (EC50) in experiment [1] is 1.58 µM; in experiment [2] it was 0.799 µM; in experiment [4], 0.251 µM; in experiment [3], 0.206 µM.

As for `N#Cc1ccc(Nc2nccc([C@@H](O)c3ccc(-c4ccc(C#N)cc4)cc3Cl)n2)cc1`, the EC50 in experiment [1] was found to be 0.053 µM; in experiment [5], 0.128 µM; in experiment [2], 0.014 µM; in experiment [4], 0.0032 µM; in experiment [3], 0.003 µM.

Regarding `N#Cc1ccc(Nc2nccc(C(O)c3ccc(-c4ccc(C#N)cc4)cc3F)n2)cc1` (configuration not stated), the EC50 came to 0.902 µM in experiment [1]; 4.18 µM in experiment [5]; 0.112 µM in experiment [2]; 0.088 µM in experiment [4]; 0.029 µM in experiment [3].

On to `N#Cc1ccc(Nc2nccc([C@H](O)c3ccc(-c4ccc(C#N)cc4)cc3F)n2)cc1`, for which the half-maximal effective concentration (EC50) is 3.63 µM in experiment [1]; above 30 µM in experiment [5]; 1.16 µM in experiment [2]; 0.736 µM in experiment [4]; 0.164 µM in experiment [3].

On to `N#Cc1ccc(Nc2nccc([C@@H](O)c3ccc(-c4ccc(C#N)cc4)cc3F)n2)cc1`, for which the EC50 in experiment [1] was determined as 0.38 µM; in experiment [2] it was 0.078 µM; in experiment [4], 0.05 µM; in experiment [3] it was 0.0093 µM.

In the case of `Cc1cc(-c2ccc(C#N)cc2)ccc1C(O)c1ccnc(Nc2ccc(C#N)cc2)n1` (configuration not stated), the 50% effective concentration (EC50) in experiment [1] is 0.184 µM; in experiment [5] it was 0.623 µM; in experiment [2] it was 0.031 µM; in experiment [4], 0.018 µM; in experiment [3], 0.0098 µM.

For the compound `Cc1cc(-c2ccc(C#N)cc2)ccc1[C@@H](O)c1ccnc(Nc2ccc(C#N)cc2)n1`, the 50% effective concentration (EC50) stood at 2.64 µM in experiment [1], 0.743 µM in experiment [2], 0.479 µM in experiment [4] and 0.149 µM in experiment [3].

On to `Cc1cc(-c2ccc(C#N)cc2)ccc1[C@H](O)c1ccnc(Nc2ccc(C#N)cc2)n1`, for which the concentration for a half-maximal effect (EC50) is 0.081 µM in experiment [1]; 0.264 µM in experiment [5]; 0.019 µM in experiment [2]; 0.0086 µM in experiment [4]; 0.0055 µM in experiment [3].

Turning to `N#Cc1ccc(Nc2nccc(C(O)c3ccc(-c4ccc(C#N)cc4)cc3C(F)(F)F)n2)cc1` (configuration not stated), the EC50 in experiment [1] is 0.212 µM; in experiment [5] it was 0.552 µM; in experiment [2], 0.059 µM; in experiment [4], 0.026 µM; in experiment [3], 0.026 µM.

Regarding `N#Cc1ccc(Nc2nccc([C@H](O)c3ccc(-c4ccc(C#N)cc4)cc3C(F)(F)F)n2)cc1`, the EC50 in experiment [1] was 1.74 µM; in experiment [5] it was above 24.1 µM; in experiment [2] it was 1.82 µM; in experiment [4] it was 1.91 µM; in experiment [3], 0.933 µM.

For the compound `N#Cc1ccc(Nc2nccc([C@@H](O)c3ccc(-c4ccc(C#N)cc4)cc3C(F)(F)F)n2)cc1`, the EC50 was determined as 0.093 µM in experiment [1]; 0.318 µM in experiment [5]; 0.03 µM in experiment [2]; 0.015 µM in experiment [4]; 0.0091 µM in experiment [3].

Turning to `N#Cc1ccc(Nc2nccc(C(O)c3c(F)cc(-c4ccc(C#N)cc4)cc3F)n2)cc1` (configuration not stated), the concentration for a half-maximal effect (EC50) in experiment [1] was found to be 0.41 µM; in experiment [5], 3.5 µM; in experiment [2], 0.125 µM; in experiment [4] it was 0.061 µM; in experiment [3], 0.025 µM.

As to `N#Cc1ccc(Nc2nccc([C@H](O)c3c(F)cc(-c4ccc(C#N)cc4)cc3F)n2)cc1`, the concentration for a half-maximal effect (EC50) was found to be 1.43 µM in experiment [1]; 5.94 µM in experiment [5]; 0.432 µM in experiment [2]; 0.364 µM in experiment [4]; 0.055 µM in experiment [3].

As for `N#Cc1ccc(Nc2nccc([C@@H](O)c3c(F)cc(-c4ccc(C#N)cc4)cc3F)n2)cc1`, the half-maximal effective concentration (EC50) amounted to 0.341 µM in experiment [1]; 2.25 µM in experiment [5]; 0.089 µM in experiment [2]; 0.036 µM in experiment [4]; 0.0084 µM in experiment [3].

For the compound `Cc1cc(-c2ccc(C#N)cc2)cc(C)c1C(O)c1ccnc(Nc2ccc(C#N)cc2)n1` (configuration not stated), the EC50 in experiment [1] was found to be 0.049 µM; in experiment [5] it was 0.417 µM; in experiment [2], 0.023 µM; in experiment [4], 0.007 µM; in experiment [3] it was 0.016 µM.

`Cc1cc(-c2ccc(C#N)cc2)cc(C)c1[C@@H](O)c1ccnc(Nc2ccc(C#N)cc2)n1`: the concentration giving a half-maximal response (EC50) in experiment [1] came to 0.165 µM; in experiment [5], 2.2 µM; in experiment [2], 0.046 µM; in experiment [4], 0.021 µM; in experiment [3] it was 0.019 µM.

`Cc1cc(-c2ccc(C#N)cc2)cc(C)c1[C@H](O)c1ccnc(Nc2ccc(C#N)cc2)n1`: the EC50 in experiment [1] came to 0.02 µM; in experiment [2] it was 0.0074 µM; in experiment [4] it was 0.0039 µM; in experiment [3], 0.0072 µM.
